Experimental findings from US20260167659A1, “STING AGONISTS” (LIGACHEM BIOSCIENCES INC., priority 2022, published 2026) are described below.

One series deals with T1, hSTING-WT (R232) (Homo sapiens, UniProt Q86WV6, H232R).
T1 construct: host or cells: THP1-Dual cells (human monocytes) with knocked-in hSTING R232
Put plainly: STING activation, THP1-Dual IRF3 reporter assay, hSTING-R232 cells. It is filed as cell-based. As to conditions: IRF3 luciferase reporter, 24 hours, read-out: STING activity using hSTING-R232 cells EC50. The gist of the method: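 THP1-Dual monocytes carrying knocked-in hSTING-WT (R232), H232 or HAQ variants were seeded at 9.0×10^4 cells per well and treated next day with serially diluted compounds for 24 h. Secreted IRF-Lucia luciferase in the supernatant was read by luminescence, and EC50 values were fitted with a 4-parameter model.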
On the technique in general: In a reporter assay the amount or activity of a reporter protein is the signal.

Series [1] in a line: Plasma pharmacokinetics in naive Balb/C mouse, LC-MS/MS. Format: in vivo. As to conditions: 1.5 mg/kg single IV; for AUC∞, norm / Cmax, norm: n = 3, dose-normalised; for AUC(0-inf) / AUC(0-t) / C0 / Cmax / clearance / half-life / Vd: female; for AUC(0-inf) / AUC(0-t) / C0 / Cmax: n = 3, plasma; for clearance / half-life / Vd: plasma; for clearance / half-life: n = 3; for Vd: n = 3, read-out: VSS. The protocol: For in vivo evaluation of STING agonist compounds described herein in naïve Balb/C mouse, single doses of STING agonist compounds were given at 1.5 mg/kg intravenously into female BALB/c mice (Orientbio, South Korea) at 6-8 weeks of age. Pharmacokinetics were studied following injection of the STING agonist compounds into Balb/C mice. Plasma samples were taken at various time points and stored frozen for analysis. The plasma concentrations of the STING agonist compounds at the indicated time points were measured using a LC-MS/MS analysis method.
Briefly, 250 μL of acetonitrile (ACN) solution was added in both 50 μL of sample and 50 μL of plasma containing 10 nM Dextromethorphan (internal standard), and the solutions were mixed vigorously using a vortex mixer for 5 minutes. The samples were then spun down at 14,000 rpm, 4° C. for 5 minutes. 100 μL of supernatants were combined with 100 μL of mobile phase A (0.1% formic acid in water with 5% ACN) and mixed thoroughly. The samples were measured for the STING agonist compounds using a LC-MS/MS (Nexera LC40 (SHIMADZU) and QTRAP4500 (SCIEX)).

Series [2] concerns human peripheral blood mononuclear cells (PBMCs). Briefly: Cytokine production induction in PBMCs (ELISA). The settings on record: 1 μM, 24 hours; for human CXCL-10 production: FIG. 1A; for human IFNα production: FIG. 1B. It is filed as cell-based. The method, then:
The cells (2.0×10^4 cells per well) were seeded in a flat-bottomed 96-well plate. PBMCs were stimulated with STING agonist compounds described herein (Compound 214, 221, and 230) at 1 μM for 24 hours. BxPC-3 and MDA-MB-468 tumor cells were treated with STING agonist compounds described herein (Compound 313) in a 5-fold serial dilution from […] for 24 hours, respectively. The levels of cytokines in the culture supernatants were measured using the ELISA kit (R&D systems, #DY266, #DY9345-05) according to the manufacture's instruction.
Briefly, each well of a 96-well plate was coated with 100 μL of the diluted capture antibody in PBS and incubated overnight at room temperature (RT). Next day, each well was washed with wash buffer (0.05% Tween 20 in PBS) three times using an auto-washer. The plates were blocked with 300 μL of Reagent Diluent (1% BSA in PBS) for 1 hour at RT. The aspiration/wash step was repeated. 100 μL of diluted samples or standards in Reagent Diluent was added to each well and incubated for 2 hours at RT. After wash, 100 μL of the Detection Antibody pre-diluted in Reagent Diluent was added into each well and incubated for 2 hours at RT. After wash, 100 μL of the working diluted […] in Reagent Diluent was added and incubated under subdued light conditions for 20 minutes, followed by repeated aspiration/wash. 100 μL of substrate solution (mixed H2O2 and Tetramethylbenzidine in a 1:1 ratio) was added and incubated for 20 minutes at RT in avoiding direct light exposure. The reaction was stopped by adding 50 μL of stop solution (2N H2SO4). The optical density was determined using a microplate reader (Molecular Devices VersaMax Microplate Reader). The optical density (O.D.) of each well was normalized by subtracting the reading at 570 nm from the reading at 450 nm.
(ELISA stands for enzyme-linked immunosorbent assay.)

The nature of series [3]: Normal cell cytotoxicity in CD34+ HSC, CellTiter-Glo. Format: cell-based. The settings on record: human, CD34+ hematopoietic stem cells (HSCs), read-out: In vitro cell cytotoxicity in CD34+ HSC CC50. The method, then: The CD34^+ hematopoietic stem cells (HSCs) were purchased from […]™ (#70002.3). The cells (2×10^4 cells per well) were cultured in StemSpan™ SFEM II medium supplemented with StemSpan™ CD34+ Expansion Supplement (#02691) in a 6-well plate at 37° C. for 7 days. On day 3 or 4, an equal volume of fresh complete medium was added into the cell culture. On day 7, the cells (4×10^4 cells per well) were seeded in a 96-well white plate and rested for 24 hours in the same condition.
After 72 hours, the cell viability was measured using CellTiter-Glo Luminescent Cell Viability Assay (Promega, #G7573) according to the manufacture's instruction. The signal was detected using an EnVision Xcite multilabel reader and data were analyzed using GraphPad Prism 8 software.

A short description of series [4]: Normal cell cytotoxicity in PBMCs, CellTiter-Glo. Format: cell-based. As to conditions: human, read-out: In vitro cell cytotoxicity in PBMCs CC50. The protocol:
PBMCs were also purchased from […]™ (#700025.2). The cells (8.0×10^4 cells per well) were seeded in a flat-bottomed 96-well plate in RPMI 1640 medium (Gibco, #22400097) with 10% heat-inactivated FBS and 1× Antibiotic-Antimycotic (Gibco, #15240062) and rested for 24 hours at 37° C. […] After 72 hours, the cell viability was measured using CellTiter-Glo Luminescent Cell Viability Assay (Promega, #G7573) according to the manufacture's instruction. The signal was detected using an EnVision Xcite multilabel reader and data were analyzed using GraphPad Prism 8 software.
To verify the effect of the STING agonist compounds in normal cell cytotoxicity, the PBMCs were treated with the STING agonist compounds for 3 days and measured the percentage of cell death.
In general terms: Cellular ATP, detected with luciferase, serves as a proxy for viable cell number.

Series [5] has as its system human PBMCs (CD8+ T cells and NK cells). Put plainly: CD8+ T and NK cell activation in PBMCs by flow cytometry. Format: cell-based. The settings on record: 100 nM, 48 hours. The method, then:
To test the effect of STING agonist compounds described herein in the activation of innate and adaptive immune cells, flow cytometry (FACS) was performed. Human THP-1 cells (Korean Cell Line Bank, #40202) and PBMCs were seeded at 1.2×10^5 cells per well in a round-bottomed 96-well plate in RPMI 1640 medium (Gibco, #22400097) supplemented with 10% heat-inactivated FBS and 1× Antibiotic-Antimycotic (Gibco, #15240062) and rested for 24 hours at 37° C. The cells were stimulated with the STING agonist compounds as described; For THP-1 stimulation, the cells were treated with the STING agonist compound (Compound 313) in a 5-fold serial dilution from 1 μM for 48 hours. The induction of cell surface activation markers, CD86 (co-stimulatory molecule) and HLA-DR (MHC-class II), was measured by flow cytometry. […] For flow cytometry analysis, the stimulated cells were centrifuged at 300 g for 5 minutes at 4° C., and then resuspended in FACS buffer (2% FBS, 2 mM EDTA in PBS). After staining cells with human Fc blocker (BD Biosciences, #564220) in FACS buffer for 10 minutes at 4° C. Subsequently, the cells were stained with fluorescence-conjugated antibodies against CD8, CD3, CD56, and CD69 for CD8 T and NK cells activation and against CD86 and MHC-II for THP-1 naïve cells activation for 40 minutes at 4° C. After washing three times with FACS buffer, the cells were resuspended in FACS buffer and analyzed by FACSlyric (BD bioscience). The data were analyzed with Flowjo 9.0 software (BD bioscience).
After treating human PBMCs with the STING agonist compounds, it was analyzed the activation of CD8^+ T cells and NK cells by measuring CD69, an activation marker, on their cell surface by flow cytometry.

Another series deals with T2, human STING (Homo sapiens, UniProt Q86WV6, H232R).
T2 construct: purchased Cisbio 64BDSTGPEG
T2 sequence (Q86WV6 whole entry H232R): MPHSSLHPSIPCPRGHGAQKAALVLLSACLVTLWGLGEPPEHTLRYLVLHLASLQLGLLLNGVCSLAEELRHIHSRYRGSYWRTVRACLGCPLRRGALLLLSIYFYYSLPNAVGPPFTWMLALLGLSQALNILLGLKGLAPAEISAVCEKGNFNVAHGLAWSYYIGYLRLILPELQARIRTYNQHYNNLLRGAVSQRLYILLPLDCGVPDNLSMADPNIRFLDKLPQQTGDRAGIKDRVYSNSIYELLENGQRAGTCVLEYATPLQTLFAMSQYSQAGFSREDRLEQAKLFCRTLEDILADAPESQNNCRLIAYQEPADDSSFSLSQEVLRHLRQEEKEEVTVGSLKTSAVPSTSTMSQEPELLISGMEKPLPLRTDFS
Put plainly: Direct STING binding, HUMAN STING WT BINDING KIT (Cisbio). As to conditions: direct binding to human STING WT protein in vitro; read-out: Binding potency EC50. From the text:
Additionally, for analysis of direct binding potency of STING agonist compounds described herein to human STING, HUMAN STING WT BINDING KIT (Cisbio, #64BDSTGPEG) was used according to the manufacture's instruction.

Structures are written as SMILES.

T1 sequence (Q86WV6 whole entry H232R): as above

For orientation: EC50 means the concentration that produces a half-maximal response. One may read the AUC(0-inf) as the area under the concentration-time curve extrapolated to infinity. Broadly, the AUC(0-t) is exposure summed from dosing to a finite time, without extrapolation to infinity. Read a high AUC(0-t) as more exposure. The term Cmax denotes the maximum level reached in the sampled fluid or tissue. What is called clearance is the rate of elimination divided by the concentration. Higher therefore signals efficient removal. What is called half-life is the time needed for the level to fall by half in the phase considered. Low readings indicate rapid decline, high ones slow decline. With `CCn1nc(C)cc1C(=O)Nc1nc2cc(C(N)=O)cc(OC)c2n1CC=CCn1c(NC(=O)c2cc(C)nn2CC)nc2cc(C(N)=O)cc(OCCCN3CCN(C(=O)OCc4ccc(OC5OC(C(=O)O)C(O)C(O)C5O)c(C(=O)NCCOC)c4)CC3=O)c21` (stereo not drawn) [Compound 221], the EC50 at hSTING-WT (R232) turned out to be 68.3 nM. Further, in series [1], the “AUC∞, norm” value came to 4.53 ± 0.15 kg·h/L; the “Cmax, norm” value is given as 5.37 ± 0.30 kg/L; the AUC(0-inf) came to 6800 ± 230 ng·h/mL; the AUC(0-t) amounted to 6670 ± 220 ng·h/mL. In series [1], the C0 worked out at 9790 ± 430 ng/mL, the concentration peaked (Cmax) at 8060 ± 450 ng/mL, the clearance is 3.67 mL/min/kg and the half-life was 1.06 ± 0.04 h. The Vd in series [1] was 0.26 ± 0.01 L/kg. Moreover, in series [2], the “human CXCL-10 production” value was “induced cytokine production” and the “human IFNα production” value was “induced cytokine production”.
As for `CCn1nc(C)cc1C(=O)Nc1nc2cc(C(N)=O)cc(OC)c2n1C/C=C/Cn1c(NC(=O)c2cc(C)nn2CC)nc2cc(C(N)=O)cc(OCc3cccc(NC(=O)OCc4ccc(O[C@@H]5O[C@H](C(=O)O)[C@@H](O)[C@H](O)[C@H]5O)c(C(=O)NCCOC)c4)c3)c21` [Compound 230], at hSTING-WT (R232), the EC50 was found to be 3.96 nM. For the same compound, in series [2], the “human CXCL-10 production” value is “induced cytokine production” and the “human IFNα production” value is listed as “induced cytokine production”.
The term CC50 denotes the concentration at which the toxic effect on the cells reaches its halfway point. `CCn1nc(C)cc1C(=O)Nc1nc2cc(C(N)=O)cc(OC)c2n1C/C=C/Cn1c(NC(=O)c2cc(C)nn2CC)nc2cc(C(N)=O)cc(OC/C=C/Cn3cc(NC(=O)OCc4ccc(O[C@@H]5O[C@H](C(=O)O)[C@@H](O)[C@H](O)[C@H]5O)c(C(=O)NCCOCCOCCO)c4)cn3)c21` [Compound 277]: on hSTING-WT (R232), the EC50 is 27.4 nM. Moreover, in series [1], the “AUC∞, norm” value was determined as 7.37 ± 0.25 kg·h/L; the “Cmax, norm” value is on record as 4.04 ± 0.24 kg/L; the AUC(0-inf) was 11100 ± 370 ng·h/mL; the AUC(0-t) turned out to be 10500 ± 490 ng·h/mL. In series [1], the C0 was 6530 ± 320 ng/mL, the Cmax worked out at 6060 ± 360 ng/mL, the clearance was 2.33 mL/min/kg and the half-life is 1.38 ± 0.19 h. In addition, the Vd in series [1] was 0.27 ± 0.03 L/kg. Besides, the CC50 at 72 h in series [3] is 13.5 nM. Further, the CC50 at 72 h in series [4] stood at 32.1 nM. For the same compound, the “CD69 expression on CD8+ T cells” value in series [5] (FIG. 4A) is on record as “enhanced CD69 expression”. Besides, in series [5] (FIG. 4B), the “CD69 expression on NK cells” value is reported as “enhanced CD69 expression”. Also, the EC50 on human STING came out at 0.2 nM.
